{"source": "patent US20190359653A1", "about": "“SELECTIVE PEPTIDE INHIBITORS OF FRIZZLED” (Genentech, Inc., priority 2016, published 2019)", "key": {"[1]": {"system": "FZD CRD-Fc", "test": "binding of 5FAM peptides to the FZD CRD-Fc panel", "description": "Control experiments using 5FAM-Fz7-21S were performed in parallel. 5FAM-Fz7-21 or 5FAM-Fz721S was incubated with each of the aforementioned FZD CRD-Fcs overnight at 4° C. in PBS and resolved via SEC.\nIn FIGS. 3A-3I, 5FAM-Fz7-21 or 5FAM-Fz7-21S (50 nM in PBS) was incubated with increasing concentration of FZD CRD-Fc (2-fold serial dilutions), and fluorescence intensity was measured using either a Monolith NT.115 or NT.115Pico instrument (NanoTemper Technologies). EC50 values represent the 95% confidence interval of at least three independent experiments, excepting hFZD1 CRD-Fc+5FAM-Fz7-21S, which was done twice. EC50 ovalues were calculated with Prism Graphpad using the Log(agonist) vs. response [variable slope (four parameters) function: Y=Bottom+(Top-Bottom)/(1+10^((Log EC−X)*HillSlope))]. Plotted values represent the mean±s.e.m."}, "[2]": {"system": "FZD CRD-Fc proteins", "test": "fluorescence size-exclusion chromatography (FSEC) with FZD CRD-Fc proteins", "type": "binding", "conditions": "1 μM peptide, 250 nM FZD CRD-Fc, overnight at 4° C.; FZD1, FZD2 and FZD7 CRD-Fc", "description": "(§1) Fluorescence size-exclusion chromatography (FSEC) experiments were run using an AKTA FPLC system (General Electric Company) with UNICORN software package (version 5.31). Samples were resolved using a SEC3000 or SEC2000 (Phenomenex; Torrence, Calif.) column at 0.5 mL/min in phosphate buffer. Fluorescence was monitored using a FP-2020 Plus fluorescence detector (Jasco Analytical Instruments, Easton, Md.) in normal mode (excitation/emission, […]; gain=100; STD=32). All samples were prepared with a final DMSO concentration of 1% and incubated overnight at 4° C. prior to sample separation. FZD CRD-Fc samples were kept at ˜250 nM in the presence of excess 5FAM labeled peptide (1 μM). […]\nSelective targeting of the FZD7 receptor subclass was also observed chromatographically. […] See FIGS. 4A and 4B, which provide representative fluorescence traces of 1 μM 5FAM-Fz7-21 and 1 μM 5FAM-Fz7-21S, respectively, incubated with various FZD CRD-Fc proteins (250 nM) overnight at 4° C. prior to analysis by FSEC. […] In FIG. 24A, molecular weight (MW) standards analyzed by UV absorption were plotted as a function of elution volume (Ve) over void volume (Vo). […] Measured values represent the mean±standard deviation (SD) of three independent experiments. […] Binding to recombinant FZD3 and 6 CRDs could not be assessed due to challenges with the expression of these proteins. […]"}, "[3]": {"system": "FZD7, FZD4, 5 or 6 receptors stably expressed in HEK293 cells", "test": "flow cytometry of cells stably expressing gD-FZD", "type": "binding", "conditions": "peptide 12.5 μM", "description": "Cell lines stably expressing gD-FZD were grown to ˜80% confluence in DMEM:F12 (50:50) media supplemented with 10% FBS (cat. no. 1500-100; Seradigm), 1× GlutMAX (cat. no. 35050-061; Gibco) and G418 (200 μg/mL; cat. no. A1720; Sigma), released with 0.05% trypsin/EDTA in PBS (cat. no. 15400-054; Gibco), collected on ice and buffer exchanged into ice cold FACS buffer (0.5% BSA and 0.05% NaAz in PBS). 100,000 cells/well were plated into an ice cold U-bottomed plate (cat. no. 3799; Costar) and cells pelleted by centrifugation at 1200 rpm for 3 min. […] Data was collected with FACSDiva (BD; version 8.0.1) and analyzed using FLowJo (FlowJo, LLC; v10.1).\nSelective targeting of the FZD7 receptor subclass was also observed chromatographically. […] See FIGS. 4A and 4B, which provide representative fluorescence traces of 1 μM 5FAM-Fz7-21 and 1 μM 5FAM-Fz7-21S, respectively, incubated with various FZD CRD-Fc proteins (250 nM) overnight at 4° C. prior to analysis by FSEC. […] In FIG. 24A, molecular weight (MW) standards analyzed by UV absorption were plotted as a function of elution volume (Ve) over void volume (Vo). […] Measured values represent the mean±standard deviation (SD) of three independent experiments. […] Binding to recombinant FZD3 and 6 CRDs could not be assessed due to challenges with the expression of these proteins."}, "[4]": {"system": "human sFRP1, sFRP2, sFRP3, sFRP4, or sFRP5", "test": "FSEC with secreted Frizzled-related proteins", "type": "binding", "conditions": "sFRP ~250 nM, peptide 10 μM", "description": "as §1, with “μM). Human secreted Frizzled-related proteins were maintained at ˜250 nM in the presence of excess 5FAM-labeled peptide (10 μM).” for “μM).”\nFor FIGS. 4C and 5C, values represent the mean±s.e.m. of three independent experiments. […] Samples were resolved using a SEC3000 column (Phenomenex; Torrence, Calif.) at 0.5 mL/min in phosphate buffer saline (PBS) and fluorescence was monitored with an FP-2020 Plus fluorescence detector (Jasco Analytical Instruments, Easton, Md.) using normal mode (excitation/emission […]); gain=100; STD=32. […] Molecular weights were determined by standards (BioRad catalogue number, 151-1901) run prior to sample runs."}}, "note": "Peptide text beside a SMILES is read from it. * marks the point of attachment. 5FAM = O=C1OC2(c3ccc(O)cc3Oc3cc(O)ccc32)c2ccc(C(=O)*)cc21", "data": [{"smiles": "CSCC[C@H](NC(=O)[C@@H](NC(=O)[C@H](Cc1c[nH]cn1)NC(=O)[C@H](CS)NC(=O)[C@H](Cc1c[nH]c2ccccc12)NC(=O)[C@H](Cc1ccccc1)NC(=O)[C@H](CCC(=O)O)NC(=O)[C@H](CC(C)C)NC(=O)[C@H](CC(=O)O)NC(=O)[C@H](CC(=O)O)NC(=O)[C@H](CO)NC(=O)[C@@H]1CCCN1C(=O)[C@H](CC(C)C)NC(=O)c1ccc2c(c1)C(=O)OC21c2ccc(O)cc2Oc2cc(O)ccc21)C(C)C)C(=O)N[C@@H](Cc1ccc(O)cc1)C(N)=O", "note": "[5FAM-Fz7-21] (5FAM-LPSDDLEFWCHVMY-NH2; N-terminus and C-terminus assumed)", "values": [{"measurement": "binding", "setting": "[1]; FZD5, FZD8, FZD9 and FZD10 CRDs", "value": "little to no binding"}, {"measurement": "EC50", "setting": "[1]; hFZD1 CRD-Fc, hFZD2 CRD-Fc, hFZD7 CRD-Fc, and mFZD7 CRD-Fc, read-out: affinities", "value": "39 to 116", "unit": "nM"}, {"measurement": "complex with FZD CRD-Fc resolved by FSEC", "setting": "[2]", "value": "could be resolved"}, {"measurement": "binding by flow cytometry analysis", "setting": "[3]", "value": "predominant binding to FZD7 with minimal binding to FZD4, 5 or 6 receptors"}, {"measurement": "binding to sFRPs by FSEC", "setting": "[4]", "value": "not found to bind"}]}]}
